Tests used:
[1] = tested on: Cavia porcellus; assay: Intraperitoneal dose required for inhibition of [Nle10]-NKA4-10 induced bronchoconstriction in guinea pig; type: functional; conditions: ip
[2] = tested on: Cavia porcellus; assay: Intravenous dose required for inhibition of [Nle10]-NKA4-10 induced bronchoconstriction in guinea pig; type: functional

SMILES: CC(=O)NC1(c2ccccc2)CCN(CC[C@H](CN(C)C(=O)c2ccccc2)c2ccc(Cl)c(Cl)c2)CC1 [SAREDUTANT]
- ED50 [1]: 0.35 mg/kg
- ED50 [2]: 0.037 mg/kg

Reference: ChEMBL document CHEMBL1127189, “A facile synthesis of the novel Neurokinin A antagonist SR 48968” (Bioorg Med Chem Lett, 1993)
